From patent US20100137381A1, “ACETAMIDE DERIVATIVES AS POTASSIUM CHANNEL MODULATORS” (NeuroSearch A/S, priority 2007, published 2010)

What was measured:
[1] = molecular target: chloride channel (human erythrocyte chloride conductance); experiment: In vitro human erythrocyte chloride conductance; format: cell-based; conditions: suspensions of human erythrocytes; calculated from dose-response of membrane Cl-conductance (GCl); read-out: KD-value, chloride conductance block
Source text: In this example the chloride channel blocking activity of an acetamide derivative representative of the invention, i.e. Compound 3 (2-(4-Chloro-phenyl)-N-[4′-chloro-3-(1H-tetrazol-5-yl)-biphenyl-4-yl]-acetamide), has been determined.
All dose-response experiments were therefore performed by concomitant measurements of conductive netfluxes of Cl^− (JCl) and membrane potentials (Vm) in suspensions of erythrocytes as described by Bennekou et al. (Bennekou P and Christophersen P: Flux ratio of Valinomycin—Mediated K^+Fluxes across the Human Red Cell Membrane in the presence of the Protronophore CCCP; J. Membrane Biol. 1986 93 221-227).
The membrane Cl-conductances (GCl) were calculated according to Hodgkin et al. (Hodgkin A L and Huxley A F: The components of membrane conductance in the giant axon of Loligo; J. Physiol. Lond. 1952 116 449-472) using the following equation: […]
where F is the Faraday constant and ECl is the Nernst potential for the Cl-ion.

[2] = molecular target: T1, BK channels heterologously expressed in Xenopus laevis oocytes (Homo sapiens, UniProt Q12791); experiment: BK channel activation, two-electrode voltage clamp in Xenopus laevis oocytes; format: cell-based; conditions: depolarising step to +20 mV
T1 construct: expressed in transfected cells; host or cells: Xenopus laevis oocytes
Description: In this example the BK channel opening activity of two acetamide derivatives of to the invention, i.e. 2-(3,5-difluoro-phenyl)-N-[3-(5-oxo-4,5-dihydro-[1,2,4]oxadiazol-3-yl)-4′-trifluoromethyl-biphenyl-4-yl]-acetamide (Compound 7), and 2-(3,5-bis-trifluoromethyl-phenyl)-N-[4-bromo-2-(1H-tetrazol-5-yl)-phenyl]-acetamide (Compound 2) herein designated Compound A and Compound B, respectively, is determined using BK channels heterologously expressed in Xenopus laevis oocytes.
The electrical current through the BK channel is measured by conventional two-electrode voltage clamp. BK current is activated by repeated step protocols. In brief, this protocol goes from a resting membrane potential of −40 mV lasting for 5 s to a depolarised step to +20 mV lasting for 1 s. The protocol was repeated continuously.
Having reached a stable current level, Compound A (3 μM) and Compound B (10 μM), respectively, was added. A marked increase in the current activated by depolarisation could be observed. The BK current activity returned to baseline after approximately 30-80 seconds of wash. In summary BK current was increased by 367±92% in the presence of 3 μM of Compound A (n=3, SD value), and 327±88% in the presence of 10 μM of Compound B.

T1 sequence (Q12791 whole entry): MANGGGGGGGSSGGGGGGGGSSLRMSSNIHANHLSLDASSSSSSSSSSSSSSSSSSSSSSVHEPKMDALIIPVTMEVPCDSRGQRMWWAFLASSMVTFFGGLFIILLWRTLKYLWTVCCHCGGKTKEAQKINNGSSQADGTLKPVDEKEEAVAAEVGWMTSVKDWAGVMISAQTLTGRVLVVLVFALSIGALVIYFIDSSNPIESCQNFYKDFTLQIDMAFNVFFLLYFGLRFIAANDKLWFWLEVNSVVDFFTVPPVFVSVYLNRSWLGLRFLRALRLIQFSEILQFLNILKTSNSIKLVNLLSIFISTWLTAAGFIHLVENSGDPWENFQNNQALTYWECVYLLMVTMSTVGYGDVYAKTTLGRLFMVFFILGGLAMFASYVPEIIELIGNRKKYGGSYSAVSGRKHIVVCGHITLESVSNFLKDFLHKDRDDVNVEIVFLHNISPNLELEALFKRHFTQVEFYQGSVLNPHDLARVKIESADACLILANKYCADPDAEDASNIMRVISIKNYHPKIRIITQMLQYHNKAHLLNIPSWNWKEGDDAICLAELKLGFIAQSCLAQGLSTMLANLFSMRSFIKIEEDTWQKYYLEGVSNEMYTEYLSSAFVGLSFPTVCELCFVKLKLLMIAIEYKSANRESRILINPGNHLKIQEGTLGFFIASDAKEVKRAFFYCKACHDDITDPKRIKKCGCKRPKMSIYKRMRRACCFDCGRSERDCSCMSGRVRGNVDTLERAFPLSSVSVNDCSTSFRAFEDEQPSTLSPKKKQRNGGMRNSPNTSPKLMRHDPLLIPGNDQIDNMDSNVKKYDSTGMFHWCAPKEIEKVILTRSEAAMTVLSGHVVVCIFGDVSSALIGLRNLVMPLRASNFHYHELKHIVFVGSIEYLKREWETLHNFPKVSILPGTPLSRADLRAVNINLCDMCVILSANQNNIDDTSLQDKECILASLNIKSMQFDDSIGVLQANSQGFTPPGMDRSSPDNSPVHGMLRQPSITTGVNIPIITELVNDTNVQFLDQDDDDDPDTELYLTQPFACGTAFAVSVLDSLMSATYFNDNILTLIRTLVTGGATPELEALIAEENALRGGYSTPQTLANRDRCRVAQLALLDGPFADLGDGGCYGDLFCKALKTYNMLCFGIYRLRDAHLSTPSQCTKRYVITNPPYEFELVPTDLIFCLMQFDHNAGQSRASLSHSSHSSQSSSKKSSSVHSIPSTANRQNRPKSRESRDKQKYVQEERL

`O=C(Cc1ccc(Cl)cc1)Nc1ccc(-c2ccc(Cl)cc2)cc1-c1nnn[nH]1` [Compound 3, 2-(4-Chloro-phenyl)-N-[4′-chloro-3-(1H-tetrazol-5-yl)-biphenyl-4-yl]-acetamide] was tested. Which Kd [1] did it give?
Its Kd is 90 nM.

With `O=C(Cc1cc(F)cc(F)c1)Nc1ccc(-c2ccc(C(F)(F)F)cc2)cc1-c1noc(=O)[nH]1` [Compound A, 2-(3,5-difluoro-phenyl)-N-[3-(5-oxo-4,5-dihydro-[1,2,4]oxadiazol-3-yl)-4′-trifluoromethyl-biphenyl-4-yl]-acetamide] as the molecule, how does the BK current increase ([2]; 3 μM compound, n=3, SD value) read?
The BK current increase was 367±92%.

`O=C(Cc1cc(C(F)(F)F)cc(C(F)(F)F)c1)Nc1ccc(Br)cc1-c1nnn[nH]1` [Compound B, 2-(3,5-Bis-trifluoromethyl-phenyl)-N-[4-bromo-2-(1H-tetrazol-5-yl)-phenyl]-acetamide] was tested. Which BK current increase ([2]; 10 μM compound) did it give?
Its BK current increase is 327±88%.
